Where two headings read alike, the source gives them in different places. Where no end group is shown, it is not given here.
How the values were obtained:
Assay in all cases: Direct-binding FRET assay
[1] = target: T1, CREB1 (Homo sapiens, UniProt P16220)
T1 construct: made in house
T1 sequence (P16220 269-327 limits assumed): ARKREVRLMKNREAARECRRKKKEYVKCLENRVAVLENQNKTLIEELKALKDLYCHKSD
Protocol: (§1) The direct binding assay was performed manually in 384-well plates and is similar to a previously described assay. Wells were filled with 20 μL of 1 mM TCEP-HCl. A 4 μM stock of acceptor protein was made fresh in 1 mM TCEP-HCl, and 20 μL was titrated in 2-fold dilutions over the wells. […] The direct-binding FRET data were fit as previously described. Briefly, the Kd of the designed peptide homodimer was experimentally determined and used with previously determined target homodimer Kd values to determine the heterodimer Kd. The homodimer Kd values used for the human bZIPs were from; experiments done by […] et al. used the same protein constructs for the human bZIP proteins, the same buffer conditions, and the same assay. The fitting used a system of ordinary differential equations to describe the concentrations of homo and heterodimers formed by the donor (D) and acceptor (A) as a function of the heterodimer Kd. MATLAB was used to simulate the binding experiment for different Kd values, and the value that gave the best agreement between simulation and experiment was assigned. A minimum 15% change in the donor fluorescence upon titrating the acceptor peptide from 0 to 1000 nM was required for a fit to be attempted. If this minimum was not met, the interaction was classified as “NS” for no signal change. […] For such curves, we removed the first five points and re-fit the data.

[2] = target: T2, NFE2 (Homo sapiens, UniProt Q16621)
T2 construct: made in house
T2 sequence (Q16621 266-329 limits assumed): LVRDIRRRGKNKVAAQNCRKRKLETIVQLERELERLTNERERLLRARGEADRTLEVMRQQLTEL
Protocol: as §1

[3] = target: T3, ATF4 (Homo sapiens, UniProt P18848); details: Kd
T3 construct: made in house
T3 sequence (P18848 278-341 limits assumed): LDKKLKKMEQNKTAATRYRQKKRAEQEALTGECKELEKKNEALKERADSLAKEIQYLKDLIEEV
Protocol: as §1

[4] = target: T4, MAFF (Homo sapiens, UniProt Q9ULX9)
T4 construct: made in house
T4 sequence (Q9ULX9 51-114 limits assumed): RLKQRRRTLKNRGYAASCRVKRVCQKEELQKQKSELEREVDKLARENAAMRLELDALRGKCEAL
Protocol: as §1

[5] = target: T5, NFE2L3 (Homo sapiens, UniProt Q9Y4A8)
T5 construct: made in house
T5 sequence (Q9Y4A8 578-641 limits assumed): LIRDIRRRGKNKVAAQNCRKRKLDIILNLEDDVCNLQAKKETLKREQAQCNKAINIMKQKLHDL
Protocol: as §1

[6] = target: T6, XBP1 (Homo sapiens, UniProt P17861)
T6 construct: made in house
T6 sequence (P17861 70-133 limits assumed): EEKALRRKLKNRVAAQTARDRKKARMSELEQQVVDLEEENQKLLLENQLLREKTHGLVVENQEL
Protocol: as §1

[7] = target: T7, ATF3 (Homo sapiens, UniProt P18847)
T7 construct: made in house
T7 sequence (P18847 86-149 limits assumed): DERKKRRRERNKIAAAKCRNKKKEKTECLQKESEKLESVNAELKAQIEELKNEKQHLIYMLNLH
Protocol: as §1

[8] = target: MAF (Homo sapiens, UniProt O75444); set-up: made in house
Protocol: (§2) The direct binding assay was performed manually in 384-well plates and is similar to a previously described assay. Wells were filled with 20 μL of 1 mM TCEP-HCl. A 4 μM stock of acceptor protein was made fresh in 1 mM TCEP-HCl, and 20 μL was titrated in 2-fold dilutions over the wells. […] The direct-binding FRET data were fit as previously described. Briefly, the Kd of the designed peptide homodimer was experimentally determined and used with previously determined target homodimer Kd values to determine the heterodimer Kd. The homodimer Kd values used for the human bZIPs were from; experiments done by […] et al. used the same protein constructs for the human bZIP proteins, the same buffer conditions, and the same assay. The fitting used a system of ordinary differential equations to describe the concentrations of homo and heterodimers formed by the donor (D) and acceptor (A) as a function of the heterodimer Kd. MATLAB was used to simulate the binding experiment for different Kd values, and the value that gave the best agreement between simulation and experiment was assigned. A minimum 15% change in the donor fluorescence upon titrating the acceptor peptide from 0 to 1000 nM was required for a fit to be attempted. If this minimum was not met, the interaction was classified as “NS” for no signal change. […] These interactions were marked “AS” to indicate anomalous signal. We attributed this to interactions between the peptides, the dyes and the walls of the assay plates at low concentrations. These curves could not be fit, given their unusual shapes at low concentrations of acceptor. For such curves, we removed the first five points and re-fit the data. […] One example of this is increasing concentrations of acceptor causing an increase in donor fluorescence.

[9] = target: MAFB (Homo sapiens, UniProt Q9Y5Q3); set-up: made in house; details: Kd, mean or single
Protocol: as §2

[10] = 4°C, C-terminal fluorescein design as donor, TAMRA target titrated
[11] = 4°C, C-terminal rhodamine design, repeat 1
[12] = 4°C, N-terminal rhodamine design, mean or single
[13] = 23°C, C-terminal fluorescein design as donor, TAMRA target titrated
[14] = 23°C, C-terminal rhodamine design, repeat 1
[15] = 23°C, N-terminal rhodamine design, mean or single
[16] = 37°C, C-terminal fluorescein design as donor, TAMRA target titrated
[17] = 37°C, N-terminal rhodamine design, mean or single

Sequence of MAF (O75444 288-351 limits assumed): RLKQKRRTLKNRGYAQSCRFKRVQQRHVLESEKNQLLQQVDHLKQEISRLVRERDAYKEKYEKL

“SIAATLEKEEANLEKMNKKLAAEIESLLKEKDKLESVLNYHE [JUN-d1]” gave a Kd [1] greater than 1000 nM, a Kd [1, 10] greater than 1000 nM and a Kd [1, 11] greater than 1000 nM. The Kd [1, 12] was greater than 1000 nM, the Kd [1, 13] was greater than 1000 nM and the Kd [1, 14] was greater than 1000 nM. It also gave a Kd [1, 15] greater than 1000 nM, a Kd [1, 16] greater than 1000 nM and a Kd [1, 17] greater than 1000 nM. For the same sequence, the Kd [2] was greater than 1000 nM, the Kd [2, 10] was greater than 1000 nM and the Kd [2, 11] was greater than 1000 nM. For the same sequence, the Kd [2, 12] was greater than 1000 nM, the Kd [2, 13] was greater than 1000 nM and the Kd [2, 14] was greater than 1000 nM. The Kd [2, 15] was greater than 1000 nM, the Kd [2, 16] was greater than 1000 nM and the Kd [2, 17] was greater than 1000 nM. It also gave a Kd [3, 12] of 592 nM, a Kd [3, 13] of 40.1 nM and a Kd [3, 15] greater than 5000 nM. It also gave a Kd [3, 16] of 441 nM, a Kd ([3]; 37°C, C-terminal rhodamine design, mean or single) of 543 nM and a Kd [3, 17] greater than 1000 nM. It also gave a Kd [4] greater than 1000 nM, a Kd [4, 11] greater than 1000 nM and a Kd [4, 12] greater than 1000 nM. The Kd [4, 14] was greater than 1000 nM, the Kd [4, 15] was greater than 1000 nM and the Kd [4, 17] was greater than 1000 nM. For the same sequence, the Kd [5] was greater than 1000 nM, the Kd [5, 11] was greater than 1000 nM and the Kd [5, 12] was greater than 1000 nM. The Kd [5, 14] was greater than 1000 nM, the Kd [5, 15] was greater than 1000 nM and the Kd [5, 17] was greater than 1000 nM. The Kd [6] was greater than 1000 nM, the Kd [6, 11] was greater than 1000 nM and the Kd [6, 12] was greater than 1000 nM. The Kd [6, 14] was greater than 1000 nM, the Kd [6, 15] was greater than 1000 nM and the Kd [6, 17] was greater than 1000 nM. For the same sequence, the Kd [7] was greater than 1000 nM, the Kd [7, 10] was greater than 1000 nM and the Kd [7, 12] was greater than 1000 nM. For the same sequence, the Kd [7, 13] was greater than 1000 nM, the Kd [7, 14] was greater than 1000 nM and the Kd [7, 15] was greater than 1000 nM. It also gave a Kd [7, 16] greater than 1000 nM, a Kd [7, 17] greater than 1000 nM and a Kd [8] greater than 1000 nM. The Kd ([8]; 4°C, C-terminal rhodamine design, mean or single) was greater than 1000 nM, the Kd [8, 12] was greater than 1000 nM and the Kd ([8]; 23°C, C-terminal rhodamine design, mean or single) was greater than 1000 nM. It also gave a Kd [8, 15] greater than 1000 nM, a Kd [8, 17] greater than 1000 nM and a Kd ([9]; 4°C, C-terminal rhodamine design) of 326 nM. The Kd ([9]; 4°C, N-terminal rhodamine design) was greater than 1000 nM, the Kd ([9]; 23°C, C-terminal rhodamine design) was greater than 1000 nM and the Kd ([9]; 23°C, N-terminal rhodamine design) was greater than 1000 nM. For the same sequence, the Kd ([9]; 37°C, C-terminal rhodamine design) was greater than 1000 nM and the Kd ([9]; 37°C, N-terminal rhodamine design) was greater than 1000 nM.

Reference: publication PMC4335062, “Data-Driven Prediction and Design of bZIP Coiled-Coil Interactions” (PLoS Computational Biology, 2015)
